Measured values as given in patent US20240366756A1, “COMBINATIONS AND USES THEREOF” (Incyte Corporation, priority 2011, published 2024).

B1: RefmAb33: antibody specific for RSV, used as isotype control, shares the same Fc region as MOR00208 (SEQ ID NO: 8, 9) (antibody)
heavy: QVTLRESGPALVKPTQTLTLTCTFSGFSLSTAGMSVGWIRQPPGKALEWLADIWWDDKKHYNPSLKDRLTISKDTSKNQVVLKVTNMDPADTATYYCARDMIFNFYFDVWGQGTTVTVSSASTKGPSVFPLAPSSKSTSGGTAALGCLVKDYFPEPVTVSWNSGALTSGVHTFPAVLQSSGLYSLSSVVTVPSSSLGTQTYICNVNHKPSNTKVDKKVEPKSCDKTHTCPPCPAPELLGGPDVFLFPPKPKDTLMISRTPEVTCVVVDVSHEDPEVQFNWYVDGVEVHNAKTKPREEQFNSTFRVVSVLTVVHQDWLNGKEYKCKVSNKALPAPEEKTISKTKGQPREPQVYTLPPSREEMTKNQVSLTCLVKGFYPSDIAVEWESNGQPENNYKTTPPMLDSDGSFFLYSKLTVDKSRWQQGNVFSCSVMHEALHNHYTQKSLSLSPGK
light: DIQMTQSPSTLSASVGDRVTITCSASSRVGYMHWYQQKPGKAPKLLIYDTSKLASGVPSRFSGSGSGTEFTLTISSLQPDDFATYYCFQGSGYPFTFGGGTKVEIKRTVAAPSVFIFPPSDEQLKSGTASVVCLLNNFYPREAKVQWKVDNALQSGNSQESVTEQDSKDSTYSLSSTLTLSKADYEKHKVYACEVTHQGLSSPVTKSFNRGEC
modifications: Heavy chain RefMab33; Light chain RefMab33

Tested on: MEC-1 cells
Assay: Cytotoxicity/ADCC cell killing of MEC-1 cells with PBMCs (FACS, propidium iodide)
Format: cell-based, human
Details: for normalized specific killing: combination set to 1, Bendamustine 100 μg/ml, MOR00208 6.6 pM; for % dead cells: MOR00208 6.6 pm, BEN 100 μg/ml (48 h pre-incubation), E:T 30:1, 4 h, control RefMab33
Excerpt: MEC-1 cells: chronic B-cell leukemia cell line DSMZ #ACC497; Cell Medium: Iscove's Modified Dulbecco's Medium (IMDM) with GlutaMAX™, Invitrogen, Cat No.: 31980-048, 20% FCS; PBMCs: RPMI1640, with stabile Glutamine, PAN Biotech GmbH, Cat No.: P04-13500 supplemented with 10% FCS; Biocoll: Biochrome AG CAT No.: L6115 LOT No.: 1050T; Bendamustine: Mundipharma LOT No.: 88018; FCS: PAN CAT No.: 3302-P282403 LOT No.: P282403; and RefmAb33 (anti-RSV) with same Fc region as MOR00208.
The cytotoxicity of MOR00208 and bendamustine alone and in combination was tested in MEC-1 cells. BEN is an alkylating agent, therefore, functions via direct cytoxicity in MEC-1 cells. MOR00208 targets CD19 and additionally functions via ADCC in killing MEC-1 cells. For the following groups MEC-1 cell killing was measured: BEN at 100 μg/ml; MOR00208 at 6.6 pm and the combination of MOR00208 at 6.6 pm and BEN at 100 μg/ml. […] The following were used as controls: RefmAb33, or PBMCs alone. In both the BEN group and MOR00208+BEN combination group, MEC-1 cells were pre-incubated with BEN 48 hours prior to the ADCC assay measurements. The MEC-1 cells were stained using 1 mg/ml Calcein AM then counted and adjusted to 2×10^5/ml. The PBMCs were counted and adjusted to 6×10^6/ml. The cell killing assays were done as follows: using 96 well plates, a 100 μl cell suspension of MEC-1 cells was added per well, then 100 μl cell suspension of PBMCs was added to each well resulting in an E:T ratio of 30:1. The antibodies were diluted to 1 μg/ml in medium. Cells were centrifuged and re-suspended. To the target:effector cell-pellet, 100 μl antibody solution or according control solution was added. The mixture was incubated for 4 h in CO2-incubator at 37° C. The cell killing measurements were taken as follows: the incubated cell solution (˜100 μl) was transferred into FACS tubes and 200 μl FACS buffer (DPBS+3% FCS) and 0.5 μl PI stock solution was added to each tube. FACS-Calibur was used. Dead MEC-1 cells were stained with propidium iodide.
The values represent % dead cells. Each experiment represents PBMCs from different donors. The controls used for each experiment was RefMab33.
The values shown in Table 2 are calculated as follows: 1) from the raw data (% dead cells) shown in Table 1, the background (controls) were subtracted, resulting in the specific killing for each treatment group; then 2) the specific killing values were normalized by setting the combination of MOR00208+BEN to 1. The averages of Table 2 are depicted in FIG. 5.
[…] (CI) calculations were completed in order to determine synergy of the combination of the exemplified anti-CD19 antibody and bendamustine as compared to MOR00208 and BEN alone. Such calculations are described in Ting-Chao Chou, Theoretical Basis, Experimental Design, and Computerized Simulation of Synergism and Antagonism in Drug Combination Studies, Pharmacol Rev 58:621-681 (2006), which is incorporated by reference in its entirety and Chou T C, Talalay P, Quantitative analysis of dose-effect relationships: the combined effects of multiple drugs or enzyme inhibitors. Adv Enzyme Regul 22:27-55 (1984), which is incorporated by reference in its entirety. The methods of Chou-Talalay are carried out using the CI-isobol method.
The median-effect equation models of the effect of an inhibitor (such as a drug) as Fa/Fu=(D/D50)^m, where D is the dose, Fa and Fu is the fraction of the system affected and unaffected by the dose D (Fa+Fu=1); D50 is the dose producing the median effect (e.g. IC50, ED50, LD50). The constant m determines the shape of the dose-effect curve. We used Excel Fit software to carry out a linear regression calculation to estimate the parameters m and D50.
The effects of the combination on MEC-1 cells is measured % cell death as described above.

Row | Molecule | normalized specific killing (Average of experiments 1-3) | % dead cells (Experiment 1 (PBMC donor)) [%] | normalized specific killing (Experiment 1, background subtracted) | % dead cells (Experiment 2 (PBMC donor)) [%] | normalized specific killing (Experiment 2, background subtracted) | % dead cells (Experiment 3 (PBMC donor)) [%] | normalized specific killing (Experiment 3, background subtracted) | EC50 (concentration chosen as near or at the EC50, read-out: EC50 (MEC-1 cell killing)) [pM] | Bonferroni's Multiple Comparison Test Mean Diff. (normalized specific killing, monotherapy vs. BEN + MOR00208 combination)
1 | MOR00208: anti-CD19 antibody; variable domains shown in FIG. 3, heavy and light chain Fc regions in FIG. 4 | 0.6 | 73.6 | 0.70 | 41.5 | 0.50 | 57.2 | 0.50 | ~6.6 | −0.4321
2 | B1 | – | 25.2 | – | 18 | – | 30.9 | – | – | –
